Data on 5 compounds can be found in ChEMBL document CHEMBL1201862, “PubChem BioAssay data set” (2004).

Activity calls are given as the source filed them.

Test [1] concerns the target 5'-AMP-activated protein kinase catalytic subunit alpha-1 (Homo sapiens, UniProt Q13131). It is filed as functional.
Test [2] deals with Ribosomal protein S6 kinase beta-1 (Homo sapiens, UniProt P23443). In kind it is functional.
In test [3] the target is Tyrosine-protein kinase receptor TYRO3 (Homo sapiens, UniProt Q06418). It is filed as functional.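 Also: TYRO3 value obtained as one member of a kinome-wide profiling panel.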
In test [4] the target is Serine/threonine-protein kinase 17A (Homo sapiens, UniProt Q9UEE5). It is filed as functional.
In test [5] the target is Serine/threonine-protein kinase Chk2 (Homo sapiens, UniProt O96017). It is filed as functional.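 Also: CHEK2 entry within a kinome-wide screening panel.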
Test [6] concerns the target Cyclin-dependent kinase 2 (Homo sapiens, UniProt P24941). In kind it is functional.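 Also: CDK2 measured as one member of a broad kinome profiling panel.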
Test [7] deals with Cell division cycle 7-related protein kinase (Homo sapiens, UniProt O00311). It is filed as functional.
For test [8], the target named is Casein kinase II subunit alpha (Homo sapiens, UniProt P68400). In kind it is functional.
The target in test [9] is Serine/threonine-protein kinase PAK 1 (Homo sapiens, UniProt Q13153). It is filed as functional.
Test [10] deals with Casein kinase I isoform gamma-1 (Homo sapiens, UniProt Q9HCP0). In kind it is functional.
In test [11] the target is Tyrosine-protein kinase Lyn (Homo sapiens, UniProt P07948). In kind it is functional.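 Also: lyn as one member of a kinase panel.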
In test [12] the target is Non-receptor tyrosine-protein kinase TYK2 (Homo sapiens, UniProt P29597). In kind it is functional.
In test [13] the target is Dual specificity tyrosine-phosphorylation-regulated kinase 3 (Homo sapiens, UniProt O43781). In kind it is functional.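 Also: measured as one member of a broad kinase panel.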
Test [14] addresses Protein kinase C iota type (Homo sapiens, UniProt P41743). It is filed as functional.
Test [15] addresses cAMP-dependent protein kinase catalytic subunit PRKX (Homo sapiens, UniProt P51817). In kind it is functional.
For test [16], the target named is Interleukin-1 receptor-associated kinase 4 (Homo sapiens, UniProt Q9NWZ3). In kind it is functional.
The target of test [17] is Cyclin-dependent kinase 19 (Homo sapiens, UniProt Q9BWU1). As to the kind of experiment: Navigating the Kinome. Panel member name: CDC2L6. In kind it is functional.
The target in test [18] is 3-phosphoinositide-dependent protein kinase 1 (Homo sapiens, UniProt O15530). It is filed as functional.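 Also: value comes from the Navigating the Kinome panel, PDPK1 member.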
Test [19] addresses Serine/threonine-protein kinase Nek2 (Homo sapiens, UniProt P51955). In kind it is functional.
Test [20] has as its target Tyrosine-protein kinase FRK (Homo sapiens, UniProt P42685). In kind it is functional.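 Also: FRK tested as one member of a kinome panel.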
A further test is described as follows: cells. In kind it is functional.
A short description of test [21]: cytotoxicity in HEK-293T cells, dose response, cytotoxicity control for TCR NF-kB inhibitor project, luminescence, T-cell screen hits (AID 489026).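 Also: cells exposed to compound about 14 hours before the viability readout.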 In kind it is functional, cell-based.
In a further test the target is Paired box protein Pax-8 (Homo sapiens, UniProt Q06710). As to the kind of experiment: inhibitors of PAX8-driven TPO luciferase reporter, dose response, RMG-I cells, cherry-pick (AID 687027).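 Also: luciferase reporter driven by Pax8 target thyroperoxidase promoter measured by SteadyGlo luminescence.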 In kind it is functional, cell-based. On the technique in general: In a reporter assay the amount or activity of a reporter protein is the signal.
A further test concerns the target T1, Aminopeptidase N (Plasmodium falciparum FcB1/Columbia, UniProt O96935).
T1 sequence (O96935 whole entry): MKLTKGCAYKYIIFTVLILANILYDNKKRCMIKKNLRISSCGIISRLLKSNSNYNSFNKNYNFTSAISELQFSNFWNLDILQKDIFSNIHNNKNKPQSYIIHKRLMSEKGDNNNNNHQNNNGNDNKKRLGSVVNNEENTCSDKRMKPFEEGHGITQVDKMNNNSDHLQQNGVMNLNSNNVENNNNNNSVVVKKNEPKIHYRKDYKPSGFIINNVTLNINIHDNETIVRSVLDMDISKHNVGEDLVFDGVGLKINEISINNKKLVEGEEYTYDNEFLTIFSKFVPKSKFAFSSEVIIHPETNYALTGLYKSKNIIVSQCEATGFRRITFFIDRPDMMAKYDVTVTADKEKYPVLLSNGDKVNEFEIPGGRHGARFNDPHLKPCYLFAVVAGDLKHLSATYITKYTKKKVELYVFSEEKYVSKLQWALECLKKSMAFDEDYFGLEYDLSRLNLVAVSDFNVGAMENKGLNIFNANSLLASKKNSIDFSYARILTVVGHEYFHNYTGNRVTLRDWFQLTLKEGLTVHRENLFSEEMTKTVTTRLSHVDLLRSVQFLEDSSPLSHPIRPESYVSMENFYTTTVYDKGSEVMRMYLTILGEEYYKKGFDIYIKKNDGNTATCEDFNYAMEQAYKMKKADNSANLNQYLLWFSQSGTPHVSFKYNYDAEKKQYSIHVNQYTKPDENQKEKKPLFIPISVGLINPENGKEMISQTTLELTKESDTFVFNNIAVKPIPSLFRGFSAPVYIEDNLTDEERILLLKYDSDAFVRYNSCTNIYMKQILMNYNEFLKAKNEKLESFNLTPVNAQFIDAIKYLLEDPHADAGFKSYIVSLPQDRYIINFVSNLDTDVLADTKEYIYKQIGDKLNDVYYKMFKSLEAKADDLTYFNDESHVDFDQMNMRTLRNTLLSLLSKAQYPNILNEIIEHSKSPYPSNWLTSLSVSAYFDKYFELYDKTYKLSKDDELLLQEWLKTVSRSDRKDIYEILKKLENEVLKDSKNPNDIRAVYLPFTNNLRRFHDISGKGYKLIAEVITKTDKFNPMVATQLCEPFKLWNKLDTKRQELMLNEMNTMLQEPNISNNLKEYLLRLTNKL
As to the kind of experiment: P. falciparum M1AAP inhibitors, biochemical, fluorogenic H-Leu-NHMec substrate, 1536-well (AID 1445). Also on record: species or system Plasmodium falciparum 3D7, 3D7.

Another test has as its target ORF 73 (Human herpesvirus 8, UniProt O40947). As to the kind of experiment: inhibitors of C-LANA binding to LBS DNA, dose response, biochemical, fluorescence polarization, cherry-picked samples (AID 504725).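 Also: fluorescence polarization of a labeled DNA duplex reporting LANA DNA binding; potency is for inhibitors that block LANA binding to the DNA.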 Also on record: species or system Human gammaherpesvirus 8. Background: Fluorescence polarisation rises when a labelled molecule tumbles more slowly, as on binding a larger partner.

The target in the next test is T2, Caspase-3 (Homo sapiens, UniProt P42574).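 Also: Dose-response selectivity test against caspase-3 for candidate inhibitors of sentrin-specific proteases (SENPs).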
T2 sequence (P42574 whole entry): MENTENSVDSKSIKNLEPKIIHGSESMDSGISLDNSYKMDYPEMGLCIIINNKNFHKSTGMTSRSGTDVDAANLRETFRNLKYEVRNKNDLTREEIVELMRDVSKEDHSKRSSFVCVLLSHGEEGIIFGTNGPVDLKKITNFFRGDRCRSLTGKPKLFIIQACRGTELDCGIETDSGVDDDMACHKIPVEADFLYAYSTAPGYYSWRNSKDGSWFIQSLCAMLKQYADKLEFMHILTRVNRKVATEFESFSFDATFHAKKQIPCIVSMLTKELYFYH
It is filed as functional.

In test [22] the target is Tyrosyl-DNA phosphodiesterase 2 (Homo sapiens, UniProt O95551). As to the kind of experiment: human TDP2 enzyme inhibitors, dose response, biochemical, epi absorbance, IC50 (AID 743297).

By Ki is commonly meant the equilibrium dissociation constant of an inhibitor or competing ligand from its target. One may read the IC50 as the concentration that gives 50% inhibition. As a reminder, the AC50 is the midpoint of the concentration-response curve, whichever way the signal moves.

Ribosomal protein S6 kinase beta-1, sequence (P23443 whole entry): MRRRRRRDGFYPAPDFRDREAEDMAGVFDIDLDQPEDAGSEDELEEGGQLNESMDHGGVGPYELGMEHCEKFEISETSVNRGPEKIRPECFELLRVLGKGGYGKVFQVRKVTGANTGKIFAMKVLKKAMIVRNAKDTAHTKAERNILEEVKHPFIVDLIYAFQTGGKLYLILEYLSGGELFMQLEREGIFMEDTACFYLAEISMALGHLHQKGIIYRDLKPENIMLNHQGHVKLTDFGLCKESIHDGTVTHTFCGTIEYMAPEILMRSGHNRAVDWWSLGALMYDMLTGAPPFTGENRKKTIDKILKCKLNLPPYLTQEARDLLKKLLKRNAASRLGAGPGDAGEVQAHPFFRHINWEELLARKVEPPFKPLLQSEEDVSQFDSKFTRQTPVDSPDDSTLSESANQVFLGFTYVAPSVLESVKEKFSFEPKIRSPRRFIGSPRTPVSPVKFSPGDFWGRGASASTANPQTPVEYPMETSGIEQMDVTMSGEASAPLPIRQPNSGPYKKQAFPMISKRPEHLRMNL
Serine/threonine-protein kinase Nek2, sequence (P51955 whole entry): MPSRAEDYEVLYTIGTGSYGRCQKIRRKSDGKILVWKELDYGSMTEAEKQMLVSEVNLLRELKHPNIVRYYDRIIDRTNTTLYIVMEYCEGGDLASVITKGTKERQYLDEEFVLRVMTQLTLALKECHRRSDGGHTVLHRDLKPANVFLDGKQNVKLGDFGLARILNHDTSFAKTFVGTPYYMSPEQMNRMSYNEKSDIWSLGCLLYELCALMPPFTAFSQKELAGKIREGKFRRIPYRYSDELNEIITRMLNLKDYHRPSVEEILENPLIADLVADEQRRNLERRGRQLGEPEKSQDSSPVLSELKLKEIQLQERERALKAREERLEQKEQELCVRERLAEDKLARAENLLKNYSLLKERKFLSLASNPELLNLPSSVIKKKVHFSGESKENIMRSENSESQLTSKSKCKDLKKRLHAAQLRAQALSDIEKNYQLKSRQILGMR
Dual specificity tyrosine-phosphorylation-regulated kinase 3, sequence (O43781 whole entry): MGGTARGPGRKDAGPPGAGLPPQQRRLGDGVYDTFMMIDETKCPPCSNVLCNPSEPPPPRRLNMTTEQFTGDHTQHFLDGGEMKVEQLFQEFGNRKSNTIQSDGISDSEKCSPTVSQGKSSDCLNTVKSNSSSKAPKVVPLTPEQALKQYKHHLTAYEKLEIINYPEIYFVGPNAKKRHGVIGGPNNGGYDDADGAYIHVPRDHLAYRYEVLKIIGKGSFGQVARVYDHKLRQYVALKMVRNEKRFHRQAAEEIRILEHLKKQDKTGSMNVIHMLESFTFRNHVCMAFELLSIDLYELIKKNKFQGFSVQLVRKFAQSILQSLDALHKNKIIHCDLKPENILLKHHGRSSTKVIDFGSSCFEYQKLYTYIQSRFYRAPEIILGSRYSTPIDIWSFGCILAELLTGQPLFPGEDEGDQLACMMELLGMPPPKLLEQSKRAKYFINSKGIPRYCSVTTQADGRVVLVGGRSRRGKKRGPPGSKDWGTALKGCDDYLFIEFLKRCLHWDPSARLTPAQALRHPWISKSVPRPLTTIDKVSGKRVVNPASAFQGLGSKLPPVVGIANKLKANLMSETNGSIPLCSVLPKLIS
3-phosphoinositide-dependent protein kinase 1, sequence (O15530 whole entry): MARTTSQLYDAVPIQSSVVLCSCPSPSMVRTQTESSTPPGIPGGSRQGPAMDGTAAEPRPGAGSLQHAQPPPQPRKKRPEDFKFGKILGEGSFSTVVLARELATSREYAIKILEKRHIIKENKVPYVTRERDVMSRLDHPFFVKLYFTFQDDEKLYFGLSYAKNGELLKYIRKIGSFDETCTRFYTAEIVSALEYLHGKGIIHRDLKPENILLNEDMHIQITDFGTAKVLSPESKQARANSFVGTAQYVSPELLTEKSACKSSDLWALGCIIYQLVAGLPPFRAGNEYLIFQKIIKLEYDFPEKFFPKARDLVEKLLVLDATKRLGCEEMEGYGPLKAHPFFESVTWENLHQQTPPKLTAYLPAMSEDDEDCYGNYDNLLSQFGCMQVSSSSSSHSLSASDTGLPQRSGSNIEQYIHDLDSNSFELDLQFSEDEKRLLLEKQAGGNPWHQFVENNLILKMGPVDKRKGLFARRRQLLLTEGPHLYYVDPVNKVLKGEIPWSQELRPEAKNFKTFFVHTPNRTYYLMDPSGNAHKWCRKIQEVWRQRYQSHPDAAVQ
Tyrosine-protein kinase receptor TYRO3, sequence (Q06418 whole entry): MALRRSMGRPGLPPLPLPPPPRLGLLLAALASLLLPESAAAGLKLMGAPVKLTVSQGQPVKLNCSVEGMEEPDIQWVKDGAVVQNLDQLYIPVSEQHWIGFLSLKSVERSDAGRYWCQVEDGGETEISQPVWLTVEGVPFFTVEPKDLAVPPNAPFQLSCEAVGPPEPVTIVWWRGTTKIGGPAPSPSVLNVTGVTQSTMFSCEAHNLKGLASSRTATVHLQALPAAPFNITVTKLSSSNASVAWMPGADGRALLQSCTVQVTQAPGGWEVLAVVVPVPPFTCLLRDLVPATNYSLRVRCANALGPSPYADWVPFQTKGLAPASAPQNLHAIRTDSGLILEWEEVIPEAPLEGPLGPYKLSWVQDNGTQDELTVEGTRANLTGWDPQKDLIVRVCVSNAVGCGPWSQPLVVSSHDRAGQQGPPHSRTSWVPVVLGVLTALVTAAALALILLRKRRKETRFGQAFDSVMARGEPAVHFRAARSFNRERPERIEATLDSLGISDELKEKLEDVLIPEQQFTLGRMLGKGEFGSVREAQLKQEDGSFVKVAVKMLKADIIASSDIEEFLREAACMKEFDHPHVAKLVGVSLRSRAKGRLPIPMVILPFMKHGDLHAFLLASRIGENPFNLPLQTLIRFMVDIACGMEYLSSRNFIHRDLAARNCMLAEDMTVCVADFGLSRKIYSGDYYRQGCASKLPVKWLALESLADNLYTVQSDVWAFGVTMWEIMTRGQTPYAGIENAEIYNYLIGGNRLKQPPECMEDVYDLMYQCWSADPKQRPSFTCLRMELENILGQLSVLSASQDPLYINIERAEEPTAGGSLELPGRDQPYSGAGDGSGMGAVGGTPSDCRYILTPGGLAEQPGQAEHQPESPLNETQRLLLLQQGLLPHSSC
Protein kinase C iota type, sequence (P41743 whole entry): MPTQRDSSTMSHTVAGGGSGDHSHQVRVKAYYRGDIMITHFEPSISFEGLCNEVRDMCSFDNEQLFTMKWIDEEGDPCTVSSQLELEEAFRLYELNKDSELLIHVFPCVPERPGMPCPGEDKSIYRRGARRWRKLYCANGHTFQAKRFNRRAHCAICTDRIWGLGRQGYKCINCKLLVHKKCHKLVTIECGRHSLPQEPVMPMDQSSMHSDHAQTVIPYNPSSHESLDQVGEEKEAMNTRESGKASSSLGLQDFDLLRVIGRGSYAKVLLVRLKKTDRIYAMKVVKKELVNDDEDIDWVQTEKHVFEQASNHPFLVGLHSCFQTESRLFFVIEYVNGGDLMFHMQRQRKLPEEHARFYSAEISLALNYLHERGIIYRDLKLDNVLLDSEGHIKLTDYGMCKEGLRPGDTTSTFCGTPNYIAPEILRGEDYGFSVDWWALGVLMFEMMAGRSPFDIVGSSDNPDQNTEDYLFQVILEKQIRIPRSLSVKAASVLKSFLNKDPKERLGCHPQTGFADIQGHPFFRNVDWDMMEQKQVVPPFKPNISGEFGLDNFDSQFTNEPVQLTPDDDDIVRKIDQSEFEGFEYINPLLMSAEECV
Cell division cycle 7-related protein kinase, sequence (O00311 whole entry): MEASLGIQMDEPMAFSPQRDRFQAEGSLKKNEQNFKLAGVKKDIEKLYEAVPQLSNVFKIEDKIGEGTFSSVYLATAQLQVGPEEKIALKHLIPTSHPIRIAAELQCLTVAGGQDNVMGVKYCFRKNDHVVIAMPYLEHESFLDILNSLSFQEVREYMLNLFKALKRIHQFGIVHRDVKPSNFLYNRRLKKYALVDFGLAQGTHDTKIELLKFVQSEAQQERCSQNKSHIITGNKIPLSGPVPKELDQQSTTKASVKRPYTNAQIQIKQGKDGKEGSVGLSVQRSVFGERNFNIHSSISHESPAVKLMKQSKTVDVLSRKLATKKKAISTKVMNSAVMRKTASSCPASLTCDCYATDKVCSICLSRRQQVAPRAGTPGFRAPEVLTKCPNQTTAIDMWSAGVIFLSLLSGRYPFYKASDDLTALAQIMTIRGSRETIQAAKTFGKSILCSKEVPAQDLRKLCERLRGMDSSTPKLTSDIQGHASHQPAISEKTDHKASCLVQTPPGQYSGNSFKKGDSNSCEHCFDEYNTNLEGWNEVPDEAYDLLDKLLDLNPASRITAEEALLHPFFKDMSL
5'-AMP-activated protein kinase catalytic subunit alpha-1, sequence (Q13131 whole entry): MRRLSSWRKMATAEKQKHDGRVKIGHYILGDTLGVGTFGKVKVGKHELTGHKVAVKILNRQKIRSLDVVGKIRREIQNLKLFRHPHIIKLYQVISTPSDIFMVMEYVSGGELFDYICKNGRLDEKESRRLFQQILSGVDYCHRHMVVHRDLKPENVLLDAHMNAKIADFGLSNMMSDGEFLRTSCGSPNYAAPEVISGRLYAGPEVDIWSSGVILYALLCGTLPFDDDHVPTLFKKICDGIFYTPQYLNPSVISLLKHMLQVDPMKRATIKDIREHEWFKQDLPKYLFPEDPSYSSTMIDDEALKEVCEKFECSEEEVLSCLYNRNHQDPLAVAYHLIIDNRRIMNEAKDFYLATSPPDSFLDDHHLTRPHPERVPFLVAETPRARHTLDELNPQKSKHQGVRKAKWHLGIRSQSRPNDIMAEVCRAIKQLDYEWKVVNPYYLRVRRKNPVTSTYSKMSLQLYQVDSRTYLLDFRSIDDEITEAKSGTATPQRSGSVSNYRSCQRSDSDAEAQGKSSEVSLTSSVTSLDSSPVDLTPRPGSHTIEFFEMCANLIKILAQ

Take `Cc1cccc(NC(=O)Nc2ccc3c(c2)CCc2sc4ncnc(N)c4c2-3)c1`: the Ki in test [1] is 0.398 µM (active); in [2] it was 0.0398 µM (active); in test [3] it was > 2 µM (inactive); in test [4] it was > 3.98 µM (inactive); in test [5] it was 1.26 µM (active); in test [6], > 7.94 µM (inactive). In addition, the Ki was > 1.26 µM (inactive) in test [7]; > 6.31 µM (inactive) in test [8]; > 10 µM (inactive) in test [9]; 2.51 µM (active) in [10]; 0.126 µM (active) in test [11]; > 2 µM (inactive) in [12]. Besides, the Ki was > 6.31 µM (inactive) in test [13]; > 5.01 µM (inactive) in [14]; > 1.58 µM (inactive) in test [15]; > 10 µM (inactive) in [16]; > 100 µM (inactive) in [17]; > 3.98 µM (inactive) in [18]. For the same compound, the Ki is > 10 µM (inactive) in [19] and 0.2 µM (active) in test [20].
`Cc1ccc(-n2sc3ccccc3c2=O)cc1`: in the test “cells”, the IC50 is 22.4 µM (active).
As to `CCC(=O)NC(c1ccc(C)cc1)c1ccc2cccnc2c1O` (configuration not stated), the IC50 in test [21] was > 80 µM (inactive). Besides, on Paired box protein Pax-8, the AC50 is 1.81 µM (active).
Take `N/C(=N\N=C/c1ccc(-c2ccc(O)c(C(=O)O)c2)o1)N[N+](=O)[O-]`: the IC50 on Aminopeptidase N is 10.2 µM (active). For the same compound, the AC50 on ORF 73 was 111 µM (active).
For `CC(=O)N(/N=C1\Sc2ccccc2C1=O)c1ccccc1C`, the IC50 on Caspase-3 was 42.2 µM (active); in [22], 7.67 µM (active).
